Measurements: patent US20110294843A1, “ADMINISTRATION SCHEME OF POLAR OPIOID METABOLITES FOR POST-OPERATIVE PAIN MANAGEMENT” (PAION UK Limited, priority 2008, published 2011)
Where two headings read alike, the source gives them in different places.

Assays:
[1] = system: patients following major abdominal surgery; assay: M6G022 study: analgesic efficacy and tolerability of M6G and morphine following major abdominal surgery
Experimental: Pain relief, nausea and emesis were recorded for 24 to 48 hours after start of the patient controlled analgesia.
The study site personnel (with the exception of the pharmacy); representatives of the sponsoring company; and the organisation involved in monitoring, data management, or other aspects of the study were blinded to the study treatment. The use of midazolam, temazepam, zopiclone or other short-acting pre-operative anxiolytics was allowed. All patients received a standardised general anaesthetic consisting of propofol induction, with either isoflurane or sevoflurane maintenance. These inhalational agents are associated with a similar risk of PONV. Nitrous oxide was not allowed because of its emetic effects, and the risk of an imbalance in its use. An initial bolus of 1-3 μg/kg of fentanyl or 0.1-0.3 μg/kg of sufentanyl followed by further doses as required, was used for pre- and peri-operative analgesia. Post-operative analgesia was provided by the study drug.
The investigator could administer up to 5 ml of PCA study drug, on no more than two occasions in each 24 hour post-operative period, as rescue medication if the patient was in uncontrolled pain. […] The patients stayed on PCA for a minimum of 24 hours following surgery, but could continue up to 48 hours if clinically indicated.
No prophylactic antiemetic was given, although iv ondansetron (4 mg/2 ml) was available if the patient experienced severe nausea, or immediately following emesis. If this was ineffective further doses of ondansetron; or other agents such as cyclizine, prochlorperazine or perphenazine; were allowed.
Pain intensity at rest was assessed by the patients using the VRS-11 scale at baseline, 15, 30 and 45 minutes and 1, 2, 4, 6, 9, 12, 15, 18, 21 and 24 hours after the start of PCA. A numerical scale was chosen because of the practical difficulty for post-operative patients of completing a visual analogue scale. If the patient remained on PCA after 24 hours, the pain scores were recorded every 8 hours up to 48 hours. In addition, at the end of the study the patients and observers were asked to assess the acceptability of their pain relief over the entire study using a 5 point rating global scale ranging from very poor (1) to excellent (5). […] The total consumption of study drugs was calculated.
Emesis risk factors of female gender; history of motion sickness or PONV; or smoking status were recorded at screening. Post-operative nausea was assessed by the patient using a 4 point ordinal scale (none, mild, moderate, severe) and occurrence of vomiting or dry retching recorded (yes/no; and if yes, the number of episodes) pre-operatively (Day −1), at baseline, and at 1, 2, 4, 6, 9, 12, 15, 18, 21, 24, 32, 40 and 48 hours after administration of the test analgesic. Nausea and vomiting were also combined in a single scoring system (postoperative nausea & vomiting, PONV), with an episode of vomiting or dry retching being scored as a 3 (severe) on the nausea scale.
Sedation was assessed using a combination of a binary question (sleepy, yes or no) and a 3 point ordinal scale (mild, moderate, severe) if the patient was sedated. All adverse events were recorded, along with concomitant medication use, with particular attention being paid to the use of anti-emetics.
The Intention to Treat (ITT) set of patients comprised all those who had been exposed to study medication at least once. This analysis set was the basis for the main efficacy and all safety and demographic analyses. Data were double entered using interactive verification into a CLINTRIAL database (Version 3.3.3, Phase Forward, Waltham, Mass., USA), and analysed using SAS (version 8.2, SAS Institute Inc., Cary, N.C., USA).

[2] = system: patients following total knee-replacement surgery; assay: M6G015 study: pain following total knee-replacement surgery; assay type: in vivo, human; details: 10, 20, 30 mg/70 kg slow IV, PCA morphine allowed
Experimental: Patients received a single dose of study treatment 150 minutes after the administration of the nerve block. […] The complete study has recently been reported by Dahan et al. (Eur J Pain, 2008; 12(4): 403-411).

[3] = literature, cited from earlier work

CN1CC[C@]23c4c5ccc(O)c4O[C@H]2[C@@H](OC2OC(C(=O)O)C(O)C(O)C2O)C=CC3[C@H]1C5 (stereo partly drawn) [M6G, (5α,6α)-7,8-Didehydro-4,5-epoxy-3-hydroxy-17-methylmorphinan-β-yl-β-D-glucopyranosiduronic acid]
reduction of AUC for vomiting and dry retching in favour of M6G ([1]; 0-24 hours): 32.3%
mean totals of PCA demands ([1]; 4-48 h): 53.1
reduction of AUC for vomiting and dry retching in favour of M6G ([1]; 6-24 hours): 34.2%
Reduction of PONV AUC, M6G vs morphine ([1]; AUC 0-6 h): 27.0%
Reduction of PONV AUC, M6G vs morphine ([1]; AUC 0-12 h): 26.3%
Reduction of PONV AUC, M6G vs morphine ([1]; AUC 0-24 h): 24.3%
Reduction of PONV AUC, M6G vs morphine ([1]; AUC 6-24 h): 28.5%
Reduction of PONV AUC, M6G vs morphine ([1]; AUC 12-24 h): 24.5%
Reduction of PONV AUC, M6G vs morphine ([1]; AUC 24-48 h): 10.3%
patients with sedation score recorded as severe ([1]; baseline): 20.9%
patients sedated ([1]; baseline (when given control of the PCA button)): 75.7%
mean totals of PCA demands ([1]; early post-operative period (up to 4 hours)): 33.5
magnitude of reduction of PONV ([1]; initial 24 hours post-operatively): 24-29%
dose required to achieve comfort initially ([1]; loading and recovery doses before PCA): 45.0 mg/70 kg
difference between the adjusted means of pain intensity AUCs for M6G and morphine ([1]; over the 24 hours, VRS-11): +3.318
pain intensity compared with morphine ([1]; whole 24 hour period): non-inferior to morphine
patients' opinion of pain relief compared with placebo [2]: no statistically significant differences
Log P ([3]; Avdeef et al. 1996): −0.76
Log P ([3]; Gaillard et al. 1994, calculated from lipophilicity potential): −1.3
Log P ([3]; Wu et al. 1997): −2.95
